This is an account of results in article PMC5852967, “Specific features of L-histidine production by Escherichia coli concerned with feedback control of AICAR formation and inorganic phosphate/metal transport” (Microbial Cell Factories, 2018).

Format in all cases: biochemical
Experiment [1] addresses T1, HisG^E271K feedback-resistant ATP-phosphoribosyltransferase (Escherichia coli, UniProt P60757, E271K).
T1 construct: His6-tagged HisG^E271K (HT-HisG^E271K)
Nature of the experiment: PR-ATP formation at […] nm with purified enzyme; % inhibition at […]. The note with it: read-out: Inhibition, % / AICAR / 1 mM.

Experiment [2] deals with T2, ATP-phosphoribosyltransferase (ATP-PRT, HisG) (Escherichia coli, UniProt P60757).
T2 construct: N-terminal His6-Tag HisG (HT-HisG)
T2 sequence (P60757 1-299): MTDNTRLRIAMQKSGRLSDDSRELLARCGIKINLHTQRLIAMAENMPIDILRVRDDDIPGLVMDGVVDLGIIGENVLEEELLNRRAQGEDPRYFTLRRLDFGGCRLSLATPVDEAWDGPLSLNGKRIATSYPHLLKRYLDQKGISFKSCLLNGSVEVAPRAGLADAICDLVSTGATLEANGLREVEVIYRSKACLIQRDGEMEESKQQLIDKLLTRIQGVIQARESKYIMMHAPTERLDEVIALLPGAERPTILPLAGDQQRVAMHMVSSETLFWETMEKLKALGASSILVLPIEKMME
Briefly: PR-ATP formation at […] nm with purified enzyme; Lineweaver–Burk plot.

Experiment [3] addresses T2, ATP-phosphoribosyltransferase (ATP-PRT, HisG). Briefly: PR-ATP formation at […] nm from ATP and PRPP with purified enzyme.

One may read the Ki as the equilibrium dissociation constant of an inhibitor or competing ligand from its target. Lower therefore signals a stronger hold on the target. With `NC(=O)c1ncn([C@@H]2O[C@H](COP(=O)(O)O)[C@@H](O)[C@H]2O)c1N` [AICAR, 5-aminoimidazole-4-carboxamide-1-beta-D-ribofuranosyl 5′-monophosphate], in experiment [1], the inhibition at 1000 µM turned out to be 52%. Besides, the Ki in experiment [2] was 650 µM. Turning to `Nc1ncnc2c1ncn2[C@@H]1O[C@H](COP(=O)(O)O)[C@@H](O)[C@H]1O` [AMP], the Ki in experiment [2] worked out at 2150 µM.

For the molecule `Nc1ncnc2c1ncn2[C@@H]1O[C@H](COP(=O)(O)OP(=O)(O)OP(=O)(O)O)[C@@H](O)[C@H]1O` [ATP], the “PR-ATP formation at 290 nm from ATP and PRPP with purified enzyme” value in experiment [3] is on record as “Both tested substances compete with ATP in HisG-catalyzed reactions”.
